Target: T1, GqinOBP10
T1 construct: gene OBP10; full length 134 residues (405 bp); signal peptide removed; vector pCZN1, E. coli BL21 (DE3); His tag cut off with enterokinase; about 15 kDa
Experiment: fluorescence competitive binding with 1-NPN probe
Parameters: species or system Gynaephora qinghaiensis
Conditions: 2 µM protein, 50 mM Tris-HCl pH 7.4; displacement of 1-NPN
From the text: fluorescence competitive binding with 1-NPN probe on GqinOBP10

Row | IC50 | Ki | Compound
1 | 11.7 µM | 11.6 µM | OCCC(O)CO (stereo not shown) [1,2,4-butanetriol]
2 | 13.1 µM | 13 µM | O=C1CCC(=O)CC1 [1,4-Cyclohexanedione]
3 | 18.7 µM | 18.6 µM | NC1(C(=O)O)CC1 [1-Aminocyclopropane-1-carboxylic acid]
4 | 12 µM | 11.9 µM | OC1CCc2ccccc21 (stereo not shown) [1-Indanol]
5 | 6 µM | 5.96 µM | CCCCCCCC/C=C\CCCCCCCC(=O)OC(CO)CO [2-Oleoylglycerol]
6 | 15 µM | 14.9 µM | CC(CN)C(=O)O (stereo not shown) [3-Aminoisobutanoic acid]

Row | Compound | IC50 | Ki
7 | NCC(O)c1ccccc1 (stereo not shown) [2-Amino-1-phenylethanol] | 4.51 µM | 4.48 µM
8 | N#CC[C@H](N)C(=O)O [β-cyano-L-alanine] | 12.3 µM | 12.2 µM

From article PMC12607499, “Prokaryotic Expression and Binding Characteristics of Odor-Binding Protein GqinOBP10 in Gynaephora qinghaiensis” (International Journal of Molecular Sciences, 2025)
